One assay has as its target ERα (Homo sapiens (Human), UniProt P03372). As to the kind of experiment: Degradation effect of compounds on ERα in MCF-7 and CAMA-1 cells (automated western blot, 24 h). The format is cell-based. As to conditions: ERα degradation in MCF-7 cells; for DC50: 24 hours; for Dmax at 0.1 µM: MCF7, @100 nM. Here is the method:
2. Degradation Effect of Compounds on ERα in MCF-7 and CAMA-1 Cells
Breast cancer cells MCF-7 and CAMA-1 were purchased from ATCC, the cell media were all EMEM+10% FBS, and the cells were cultured in an incubator at 37° C. under 5% CO2. On the first day, the cells in an exponential phase were collected. With a 10% css-FBS phenol red-free medium, the cell suspension was adjusted to a corresponding concentration, plated at 300000 cells/well and incubated for 3 days. After 3 days, the liquid in the well was aspirated, and a 10% css-FBS phenol red-free medium containing the compound to be tested was added and cultured in an incubator at 37° C. under 5% CO2. After 24 hours, 60 μl of RIPA lysis solution (containing 1× protease inhibitor cocktail) was added to each well, lysed on ice for 15 minutes, and then centrifuged at 4° C. for 10 minutes at 12000 g. The supernatant protein samples were collected, and protein quantification was performed by a BCA method. ERα was detected using fully automatic protein expression quantitative analysis, which involved diluting the protein to be tested to 1.5 mg/mL. 4 μL of the diluted protein samples were added to 1 μL of 5×Master Mix (provided in the kit), and the prepared samples were denatured at 95° C. for 5 min and placed on ice for use. Antibody Diluent II (provided in the kit) was used to dilute the primary antibody, in which the dilution ratios of ERα (CST, 13258S) and β-actin (CST, 3700) antibodies were 1:40 and 1:500, respectively, the secondary antibody was a 1:1 mixture of goat anti-mouse and goat anti-rabbit secondary antibodies, and the chromogenic solution was a 1:1 mixture of Lumino-S and Peroxide. The prepared reagents were successively added to an assay plate according to instructions of the kit and detected on an instrument. Western blot band processing was performed using “Compass for SW”, a fully automatic protein expression quantitative analysis software, in which western blot bands were automatically simulated based on signal values. The proportion of ERα relative to the solvent control at different drug concentrations according to equation (1), wherein Acompound was the relative peak area of ERα in the treated group, and Asolvent was the relative peak area of ERα in the solvent control group.
ERα%=Acompound/Asolvent×100 equation (1)
DC50 calculation: Calculation was performed according to equation (1), and using Graphpad Prism 8.0 software, the compound concentration DC50 values at which the degradation rate of ERα was 50% were calculated using a non-linear four-parameter function (Non linear regression (curve fit)) (Table 1).
A general note: A western blot detects proteins with antibodies after separation by electrophoresis.

Another assay deals with MCF-7 cells. The assay can be described thus: Inhibitory effect of compounds on the proliferation of MCF-7 cells (CellTiter-Glo, 7 days). The format is cell-based. As to conditions: Homo sapiens, MCF7, 168 h, 7 days incubation. Here is the method: 1. Inhibitory Effect of Compounds on the Proliferation of MCF-7 Cells
Breast cancer cells MCF-7 were purchased from ATCC, the cell media were all EMEM+10% FBS, and the cells were cultured in an incubator at 37° C. under 5% CO2. On the first day, cells in the exponential growth phase were collected and cultured in a 10% css-FBS phenol red-free medium without cytokines for 3 days. After the completion of culture, a 10% css-FBS phenol red-free medium was used to adjust the cell suspension to the corresponding concentration and same was plated to 1000 cells/well. P-estradiol and compounds of different concentrations were added. A plate without adding any reagent was taken and used as Day0 with a reading value RLUday0, determined with CellTiter-Glo kit, placed in an incubator and incubated for 7 days. After the incubation was completed, according to operation instructions for a CellTiter-Glo kit (Promega, G7573), 50 μL of CellTiter-Glo solutions, which were pre-melted and equilibrated to room temperature, were added to each well, and the mixtures were uniformly mixed for 2 min using a microplate shaker. The plate was placed at room temperature for 10 min, and then […] signal values were measured using a microplate reader (PHERAstar FSX). Chemiluminescence readouts were processed using origin9.2 software and the DoseResp function was used to calculate the GIsovalue for the inhibitory activity of compounds on the proliferation of cells (Table 1). The results were processed according to equation (1), the inhibition rate of the compound at different concentrations was calculated, and the GI50 value of the compound with a proliferation rate of 50% was calculated using origin9.2 software, wherein RLUcompound was the readout of the treated group, and RLUcontrol was the average value of the solvent control group.
Growth %=(RLUcompound−RLUday0)/(RLUcontrol−RLUday0)×100 equation (1)
(ATP-based viability assays read luminescence as a measure of living cells.)

The target of a further assay is CYP2C19 (Homo sapiens (Human), UniProt P33261). As to the kind of experiment: CYP450 enzyme inhibition test, human liver microsomes. The format is in vitro ADME. As to conditions: incubation concentration 0-50/100 μM. Here is the method: 6. CYP450 Enzyme Inhibition Test
The purpose of this study was to evaluate the effect of the test compound on the activity of five isoenzymes (CYP1A2, CYP2C9, CYP2C19, CYP2D6 and CYP3A4) of human liver microsomal cytochrome P450 (CYP) by using an in vitro testing system. The specific probe substrates of CYP450 isoenzymes were incubated with human liver microsomes and test compounds of different concentrations, and reduced nicotinamide adenine dinucleotide phosphate (NADPH) was added to initiate the reaction. After the completion of the reaction, the sample was treated and liquid chromatography-tandem mass spectrometry (LC-MS/MS) was used to quantitatively detect metabolites produced by specific substrates, changes in CYP enzyme activity were determined, and IC50 value was calculated to evaluate the inhibitory potential of the test compound on each CYP enzyme subtype.
On the technique in general: Liver microsomes are a subcellular fraction often used to study metabolism.

Chain of ERα (P03372 whole entry): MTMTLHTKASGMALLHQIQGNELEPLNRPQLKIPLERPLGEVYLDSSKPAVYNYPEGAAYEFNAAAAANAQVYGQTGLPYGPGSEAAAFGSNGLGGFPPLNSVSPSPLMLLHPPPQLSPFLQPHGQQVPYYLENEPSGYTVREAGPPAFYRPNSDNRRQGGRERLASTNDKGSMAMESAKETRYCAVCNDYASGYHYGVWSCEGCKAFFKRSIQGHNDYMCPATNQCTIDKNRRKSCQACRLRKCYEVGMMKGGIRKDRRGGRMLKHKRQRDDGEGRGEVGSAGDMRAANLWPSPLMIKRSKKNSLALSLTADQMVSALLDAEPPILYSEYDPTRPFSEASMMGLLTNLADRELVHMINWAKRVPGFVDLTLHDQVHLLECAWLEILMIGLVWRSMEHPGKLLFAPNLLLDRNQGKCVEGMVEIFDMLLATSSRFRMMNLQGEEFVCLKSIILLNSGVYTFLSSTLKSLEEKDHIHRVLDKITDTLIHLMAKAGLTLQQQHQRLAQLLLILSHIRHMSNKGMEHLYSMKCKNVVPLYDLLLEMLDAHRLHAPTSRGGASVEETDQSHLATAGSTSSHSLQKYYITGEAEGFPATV
Chain of CYP2C19 (P33261 whole entry): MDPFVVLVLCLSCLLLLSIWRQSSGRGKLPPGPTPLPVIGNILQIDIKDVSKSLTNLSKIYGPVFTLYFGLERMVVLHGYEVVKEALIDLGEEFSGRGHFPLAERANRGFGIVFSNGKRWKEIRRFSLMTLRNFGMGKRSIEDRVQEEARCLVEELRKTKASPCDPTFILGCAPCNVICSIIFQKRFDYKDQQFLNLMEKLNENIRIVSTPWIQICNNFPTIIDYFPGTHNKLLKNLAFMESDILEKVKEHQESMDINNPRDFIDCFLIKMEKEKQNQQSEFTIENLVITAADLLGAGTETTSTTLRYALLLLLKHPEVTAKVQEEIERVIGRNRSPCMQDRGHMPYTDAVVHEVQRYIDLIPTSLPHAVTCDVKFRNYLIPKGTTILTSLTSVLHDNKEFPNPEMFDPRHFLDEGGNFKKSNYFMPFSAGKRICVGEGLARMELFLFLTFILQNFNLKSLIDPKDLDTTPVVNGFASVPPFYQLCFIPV

The term DC50 denotes the midpoint of the concentration-degradation curve. The Dmax is the largest share of the target that was removed. Higher therefore signals deep degradation. As to `C[C@@H]1Cc2c([nH]c3ccc(F)cc23)[C@@H](c2c(F)cc(N[C@H]3CCN(CCCF)C3)cc2F)N1CC(F)(F)F` [Compound 18, (S)—N-(3,5-difluoro-4-((1R,3R)-6-fluoro-3-methyl-2-(2,2,2-trifluoroethyl)-2,3,4,9-tetrahydro-1H-pyrido[3,4-b]indol-1-yl)phenyl)-1-(3-fluoropropyl)pyrrolidin-3-amine], at ERα, the DC50 came to 0.47 nM and the Dmax at 0.1 µM is 70%.
For `C[C@@H]1Cc2c([nH]c3cc(F)ccc23)[C@@H](c2c(F)cc(N[C@H]3CCN(CCCF)C3)cc2F)N1CC(F)(F)F` [Compound 32, (S)—N-(3,5-difluoro-4-((1R,3R)-7-fluoro-3-methyl-2-(2,2,2-trifluoroethyl)-2,3,4,9-tetrahydro-1H-pyrido[3,4-b]indol-1-yl)phenyl)-1-(3-fluoropropyl)pyrrolidin-3-amine], in that order: 1.23 nM and 88%.
What is called GI50 is the concentration that inhibits growth by half. Low values mean greater sensitivity of the cells, high ones lower sensitivity of the cells. As usually defined, the IC50 is the midpoint of a concentration-inhibition curve. As to `C#Cc1ccc2c3c([nH]c2c1)[C@@H](c1c(F)cc(N[C@H]2CCN(CCCF)C2)cc1F)N(CC(F)(F)F)[C@H](C)C3` [Compound 43, (S)—N-(4-((1R,3R)-7-ethynyl-3-methyl-2-(2,2,2-trifluoroethyl)-2,3,4,9-tetrahydro-1H-pyrido[3,4-b]indol-1-yl)-3,5-difluorophenyl)-1-(3-fluoropropyl)pyrrolidin-3-amine], the GI50 in the assay on MCF-7 cells was determined as 0.219 nM. Further, the IC50 against CYP2C19 is over 50000 nM.

(Values after patent US20240208932A1, “ARYLAMINO DERIVATIVE ESTROGEN RECEPTOR MODULATOR AND USE THEREOF” (XIZANG HAISCO PHARMACEUTICAL CO., LTD., priority 2021, published 2024).)
